Results as given in US9409952B2, “Peptide-compound cyclization method” (Chugai Seiyaku Kabushiki Kaisha, priority 2011, dated 2016).
Starred links: 1 amine or outer side, 2 acyl side, 3 side chain; linkers in the order of their positions; H or OH if unused. Positions of bridges follow the written chain, without caps; N, C: chain ends. Non-standard residues stand in square brackets, D forms with d. Residues, ends and D or L forms follow the SMILES beside them. *: point of attachment. Phe(4-(CH2)5CO) = O=C([C@H](Cc1ccc(CCCCCC(=O)[*:3])cc1)N[*:1])[*:2]; Phe(3-(CH2)4CO) = O=C([C@H](Cc1cccc(CCCCC(=O)[*:3])c1)N[*:1])[*:2]; NEtPhe = CCN[C@@H](Cc1ccccc1)C(=O)O; NMeF = CN[C@@H](Cc1ccccc1)C(=O)O; NMeI = CC[C@H](C)[C@H](NC)C(=O)O; hPhe = N[C@@H](CCc1ccccc1)C(=O)O; NMeL = CN[C@@H](CC(C)C)C(=O)O; NMeV = CN[C@H](C(=O)O)C(C)C; NMeA = CN[C@@H](C)C(=O)O; Piperidide = C1CCN(*)CC1; dNMeA = CN[C@H](C)C(=O)O; β3hA = C[C@H](N)CC(=O)O; NPrGly = CCCNCC(=O)O; Sar = CNCC(=O)O; tBu = CC(C)(C)*

Experiment: Metabolic stability in human hepatic microsome
Assay type: in vitro ADME
Details: human, microsomes, pH 7.4, CL NADPH(+)

With CC[C@H](C)[C@@H]1NC(=O)[C@H](CC(C)C)N(C)C(=O)[C@H](CC(C)C)N(C)C(=O)[C@H](C)NC(=O)[C@H](CC(C)C)N(C)C(=O)[C@H](Cc2ccccc2)NC(=O)[C@H]([C@@H](C)O)NC(=O)[C@H](CC(C)C)N(C)C(=O)[C@H](CC(C)C)N(C)C(=O)[C@H](C)N(C)C(=O)C[C@H](C)NC1=O [DP-772] (cyclo(A[NMeL][NMeL]I[β3hA][NMeA][NMeL][NMeL]TF[NMeL])) the microsomal CLint at 1 uM was 153 µL/min/mg.

Same assay, conditions: microsomes, pH 7.4; human hepatic microsome, NADPH(+); read-out: CL NADPH(+)

In order of rising microsomal CLint at 1 uM:
1. CC[C@H](C)[C@@H]1NC(=O)[C@H](Cc2ccccc2)N(C)C(=O)[C@@H](C)NC(=O)C[C@@H](C(=O)N2CCCCC2)NC(=O)[C@H](C(C)C)NC(=O)CN(C)C(=O)[C@H]([C@@H](C)O)NC1=O [DP-674] ([dA][NMeF]IT[Sar]VD-Piperidide; lactam N-7)  10 µL/min/mg
2. CC[C@H](C)[C@@H]1NC(=O)[C@H](CC(C)C)N(C)C(=O)CN(C)C(=O)[C@H](Cc2ccccc2)NC(=O)[C@H](C(C)C)N(C)C(=O)[C@H](C)N(C)C(=O)[C@H]([C@@H](C)O)NC(=O)[C@H](C)N(C)C(=O)C[C@@H](C(=O)N2CCCCC2)NC(=O)[C@H](C)NC1=O [DP-675] ([NMeA]T[NMeA][NMeV]F[Sar][NMeL]IAD-Piperidide; lactam N-10)  22 µL/min/mg
3. CCCN1CC(=O)N[C@@H](COC(C)(C)C)C(=O)N(C)CC(=O)N(C)[C@@H](CC(C)C)C(=O)N[C@@H]([C@@H](C)O)C(=O)N(C)[C@@H](Cc2ccccc2)C(=O)N(C)[C@@H](CC(C)C)C(=O)N(C)[C@@H]([C@@H](C)CC)C(=O)N(C)[C@@H](C)C(=O)N[C@H](C(=O)N2CCCCC2)CC1=O [DP-634] ([NPrGly]S(tBu)[Sar][NMeL]T[NMeF][NMeL][NMeI][NMeA]D-Piperidide; lactam N-10)  32 µL/min/mg
4. CC[C@H](C)[C@H]1C(=O)N(C)[C@@H](CC(C)C)C(=O)N[C@H](C(=O)N2CCCCC2)CC(=O)N(C)CC(=O)N[C@@H](CC(C)C)C(=O)N[C@@H]([C@@H](C)O)C(=O)N(C)CC(=O)N(C)[C@@H](Cc2ccccc2)C(=O)N[C@@H](C)C(=O)N(CC)[C@@H](Cc2ccccc2)C(=O)N[C@@H](CC(C)C)C(=O)N1C [DP-638] ([Sar]LT[Sar][NMeF]A[NEtPhe]L[NMeI][NMeL]D-Piperidide; lactam N-11)  47 µL/min/mg
5. CC[C@H](C)[C@@H]1NC(=O)[C@H](Cc2ccccc2)N(C)C(=O)[C@H](CCc2ccccc2)NC(=O)[C@H](C(C)C)N(C)C(=O)[C@H](CC(C)C)N(C)C(=O)[C@H](CC(C)C)NC(=O)[C@@H](C)NC(=O)C[C@@H](C(=O)N2CCCCC2)NC(=O)[C@H]([C@@H](C)O)NC(=O)[C@H](C)NC(=O)[C@H](C)N(C)C1=O [DP-730] ([dA]L[NMeL][NMeV][hPhe][NMeF]I[NMeA]ATD-Piperidide; lactam N-11)  50 µL/min/mg
6. CCN1C(=O)[C@H](C)NC(=O)[C@H](Cc2ccccc2)N(C)C(=O)[C@H](CC(C)C)N(C)C(=O)[C@H](CC(C)C)NC(=O)[C@@H](C)N(C)C(=O)C[C@@H](C(=O)N2CCCCC2)NC(=O)[C@H](CC(C)C)N(C)C(=O)CN(C)C(=O)[C@H]([C@@H](C)O)NC(=O)[C@H](CC(C)C)N(C)C(=O)[C@@H]1Cc1ccccc1 [DP-637] ([dNMeA]L[NMeL][NMeF]A[NEtPhe][NMeL]T[Sar][NMeL]D-Piperidide; lactam N-11)  56 µL/min/mg
7. CCN1C(=O)[C@H](CC(C)C)N(C)C(=O)[C@H](CC(C)C)NC(=O)[C@@H](C)N(C)C(=O)C[C@@H](C(=O)N2CCCCC2)NC(=O)[C@H](CC(C)C)N(C)C(=O)CN(C)C(=O)[C@H]([C@@H](C)O)NC(=O)[C@H](CC(C)C)N(C)C(=O)[C@H](Cc2ccccc2)N(C)C(=O)[C@H](C)NC(=O)[C@@H]1Cc1ccccc1 [DP-636] ([dNMeA]L[NMeL][NEtPhe]A[NMeF][NMeL]T[Sar][NMeL]D-Piperidide; lactam N-11)  73 µL/min/mg
8. C=C1CCC(=O)N[C@@H](COC(C)(C)C)C(=O)N(CCC)CC(=O)N(C)[C@@H](CC(C)C)C(=O)N[C@@H]([C@@H](C)O)C(=O)N(C)[C@@H](Cc2ccccc2)C(=O)N(C)[C@@H](CC(C)C)C(=O)N(C)[C@@H]([C@@H](C)CC)C(=O)N(C)[C@@H](C)C(=O)N[C@H](C(=O)N2CCCCC2)Cc2ccc1cc2 [DP-839]  91 µL/min/mg
9. C=C1CCC(=O)N(C)[C@@H](Cc2ccccc2)C(=O)N[C@@H](CC(C)C)C(=O)N(C)[C@@H](CC(C)C)C(=O)N[C@@H]([C@@H](C)O)C(=O)N(C)CC(=O)N(C)[C@@H]([C@@H](C)CC)C(=O)N[C@@H](COC(C)(C)C)C(=O)N(C)[C@@H](Cc2ccccc2)C(=O)N(C)[C@@H](C(C)C)C(=O)N[C@H](C(=O)N2CCCCC2)Cc2cccc1c2 [DP-851]  99 µL/min/mg
10. CCCN1CC(=O)N(C)[C@@H](CC(C)C)C(=O)N[C@H](C(=O)N2CCCCC2)CC(=O)N(C)[C@H](C)C(=O)N[C@@H](CC(C)C)C(=O)N(C)[C@@H](CC(C)C)C(=O)N(C)[C@@H](Cc2ccccc2)C(=O)N[C@@H](C)C(=O)N(C)[C@@H](Cc2ccccc2)C(=O)N(C)[C@@H]([C@@H](C)CC)C(=O)N[C@@H]([C@@H](C)O)C1=O [DP-635] ([dNMeA]L[NMeL][NMeF]A[NMeF][NMeI]T[NPrGly][NMeL]D-Piperidide; lactam N-11)  112 µL/min/mg
11. C=C1CCC(=O)N(C)[C@@H](Cc2ccccc2)C(=O)N[C@@H](CC(C)C)C(=O)N(C)[C@@H](CC(C)C)C(=O)N[C@@H]([C@@H](C)O)C(=O)N(C)CC(=O)N(C)[C@@H]([C@@H](C)CC)C(=O)N[C@@H](COC(C)(C)C)C(=O)N(C)[C@@H](Cc2ccccc2)C(=O)N(C)[C@@H](C(C)C)C(=O)N[C@H](C(=O)N2CCCCC2)Cc2ccc1cc2 [DP-850]  119 µL/min/mg
12. CC[C@H](C)[C@H]1C(=O)N[C@@H](COC(C)(C)C)C(=O)N(C)[C@@H](Cc2ccccc2)C(=O)N(C)[C@@H](C(C)C)C(=O)N[C@H](C(=O)N2CCCCC2)Cc2cccc(c2)CCCCC(=O)N(C)[C@@H](Cc2ccccc2)C(=O)N[C@@H](CC(C)C)C(=O)N(C)[C@@H](CC(C)C)C(=O)N[C@@H]([C@@H](C)O)C(=O)N(C)CC(=O)N1C [DP-853] ([NMeF]L[NMeL]T[Sar][NMeI]S(tBu)[NMeF][NMeV][Phe(3-(CH2)4CO)]-Piperidide; lactam N-10)  120 µL/min/mg
13. CC(C)C[C@@H]1NC(=O)[C@H](Cc2ccccc2)NC(=O)[C@H](CC(C)C)N(C)C(=O)[C@H](Cc2ccccc2)NC(=O)CCCCCc2ccc(cc2)C[C@@H](C(=O)N2CCCCC2)NC(=O)[C@H](Cc2ccccc2)N(C)C(=O)CNC(=O)[C@H]([C@@H](C)O)NC(=O)[C@H](CC(C)C)NC1=O [DP-842] (F[NMeL]FLLTG[NMeF][Phe(4-(CH2)5CO)]-Piperidide; lactam N-9)  135 µL/min/mg
14. CC[C@H](C)[C@@H]1NC(=O)[C@H](C)N(C)C(=O)CCCCc2cccc(c2)C[C@@H](C(=O)N2CCCCC2)NC(=O)[C@H](CC(C)C)N(C)C(=O)[C@H](C)N(C)C(=O)[C@H]([C@@H](C)O)NC(=O)[C@H](Cc2ccccc2)N(C)C(=O)[C@H](Cc2ccccc2)N(C)C(=O)[C@H](CC(C)C)N(C)C1=O [DP-849] ([NMeA]I[NMeL][NMeF][NMeF]T[NMeA][NMeL][Phe(3-(CH2)4CO)]-Piperidide; lactam N-9)  202 µL/min/mg
15. C=C1CCC(=O)N(C)[C@@H](Cc2ccccc2)C(=O)N(C)[C@@H](CC(C)C)C(=O)N[C@@H]([C@@H](C)O)C(=O)N(C)[C@@H](C)C(=O)NCC(=O)N(C)[C@@H](CC(C)C)C(=O)N(C)[C@@H](CC(C)C)C(=O)N(C)[C@@H](CC(C)C)C(=O)N[C@H](C(=O)N2CCCCC2)Cc2ccc1cc2 [DP-845]  248 µL/min/mg
16. CC(C)C[C@H]1C(=O)N[C@@H](COC(C)(C)C)C(=O)N(C)[C@@H](CC(C)C)C(=O)N[C@H](C(=O)N2CCCCC2)Cc2ccc(cc2)CCCCCC(=O)N(C)[C@@H](C)C(=O)N(C)[C@@H](Cc2ccccc2)C(=O)N(C)[C@@H](CC(C)C)C(=O)N[C@@H]([C@@H](C)O)C(=O)N(C)CC(=O)N1C [DP-837] ([NMeA][NMeF][NMeL]T[Sar][NMeL]S(tBu)[NMeL][Phe(4-(CH2)5CO)]-Piperidide; lactam N-9)  284 µL/min/mg
17. C=C1CCC(=O)N(C)[C@@H](Cc2ccccc2)C(=O)N(C)CC(=O)N(C)[C@@H](CC(C)C)C(=O)N[C@@H]([C@@H](C)O)C(=O)N(C)[C@@H](C)C(=O)N(C)[C@@H](CC(C)C)C(=O)N(C)[C@@H]([C@@H](C)CC)C(=O)N[C@@H](COC(C)(C)C)C(=O)N[C@H](C(=O)N2CCCCC2)Cc2ccc1cc2 [DP-830]  321 µL/min/mg
18. CC[C@H](C)[C@@H]1NC(=O)[C@H](C)N(C)C(=O)CCCCCc2ccc(cc2)C[C@@H](C(=O)N2CCCCC2)NC(=O)[C@H](CC(C)C)N(C)C(=O)[C@H](CC(C)C)N(C)C(=O)[C@H](C)N(C)C(=O)[C@H]([C@@H](C)O)NC(=O)[C@H](Cc2ccccc2)N(C)C(=O)[C@H](Cc2ccccc2)N(C)C1=O [DP-841] ([NMeA]I[NMeF][NMeF]T[NMeA][NMeL][NMeL][Phe(4-(CH2)5CO)]-Piperidide; lactam N-9)  386 µL/min/mg
19. C=C1CCC(=O)N(C)[C@@H](Cc2ccccc2)C(=O)N(C)[C@@H](CC(C)C)C(=O)N[C@@H]([C@@H](C)CC)C(=O)N(C)[C@@H](C)C(=O)N(C)[C@@H](Cc2ccccc2)C(=O)N[C@@H]([C@@H](C)O)C(=O)N(C)[C@@H](C)C(=O)N(C)[C@@H](CC(C)C)C(=O)N[C@H](C(=O)N2CCCCC2)Cc2ccc1cc2 [DP-833]  427 µL/min/mg
20. CC[C@H](C)[C@@H]1NC(=O)[C@H](CC(C)C)N(C)C(=O)[C@H](Cc2ccccc2)N(C)C(=O)CCCCCc2ccc(cc2)C[C@@H](C(=O)N2CCCCC2)NC(=O)[C@H](CC(C)C)N(C)C(=O)[C@H](C)N(C)C(=O)[C@H]([C@@H](C)O)NC(=O)[C@H](Cc2ccccc2)N(C)C(=O)[C@H](C)N(C)C1=O [DP-835] ([NMeF][NMeL]I[NMeA][NMeF]T[NMeA][NMeL][Phe(4-(CH2)5CO)]-Piperidide; lactam N-9)  497 µL/min/mg
21. CC[C@H](C)[C@H]1C(=O)N[C@@H](COC(C)(C)C)C(=O)N[C@H](C(=O)N2CCCCC2)Cc2ccc(cc2)CCCCCC(=O)N(C)[C@@H](Cc2ccccc2)C(=O)N(C)CC(=O)N(C)[C@@H](CC(C)C)C(=O)N[C@@H]([C@@H](C)O)C(=O)N(C)[C@@H](C)C(=O)N(C)[C@@H](CC(C)C)C(=O)N1C [DP-832] ([NMeF][Sar][NMeL]T[NMeA][NMeL][NMeI]S(tBu)[Phe(4-(CH2)5CO)]-Piperidide; lactam N-9)  850 µL/min/mg
